IC50 data for 25 molecules are collected here from patent US20190284192A1, “NITROGENOUS MACROCYCLIC COMPOUND, PREPARATION METHOD THEREFOR, PHARMACEUTICAL COMPOSITION AND APPLICATION THEREOF” (LUOXIN PHARMACEUTICAL (SHANGHAI) CO., LTD., priority 2016, published 2019).

pIC50: −log10 of the molar value. Like-named read-outs stand apart in the source and are kept apart here.

The subject of assay [1] is MV-4-11 cells. Nature of the assay: Inhibitory effect on MV-4-11 cells (CellTiter-Glo). The format is cell-based. To be noted: Homo sapiens, read-out: MV-4-11. (In ATP-based viability assays light output follows the ATP content of the culture.)
Procedure: The 1st Day: Seed the Cells on the Plate
1. The cells were verified that they were in good conditions by observation under microscope;
2. The cells were transferred to a 15 mL centrifuge tube, after centrifuged at 1000 rpm for 5 min, the supernatant was discarded;
3. The complete medium (IMDM+10% FBS) was added, then blown and patted into single cell suspension, counted by Vi-cell cytometer, the cell suspension was adjusted to desired cell density by the complete medium.
4. The cells were inoculated into a 96 well plate, the cell number was 15000/well at 100 μL per well, 100 μL complete medium was added into the black control.
5. 37° C., 5% CO2 culture overnight.
The 2nd Day: Addition of the Drugs
1. 1000× Compound Plate Preparation
1.1. The test compound was prepared into 10 mM working solution by using DMSO. Then the STS was prepared into 2 mM working solution by using DMSO.
1.2. In the round bottom 96 wells plate, the column 2 of row A to H was added into 60 μL 10 mM test compound (or STS) working solution, columns 3-11 were added into 40 μL DMSO, 20 μL drug solution was pipetted from the column 2 to the column 3, blown and patted for a homogeneous mixture; then 20 μL solution was pipetted from the column 3 to the column 4, blown and patted for a homogeneous mixture, sequently, the drug was diluted by 3 times, 10 concentrations in total. The columns 1 and 12 were supplemented with 40 μL of DMSO.
2. Intermediate plate areparation
A sterile V-bottom 96 deep well plate was used and in each well, 495 μL FBS-free PRMI 1640 medium was added, then 5 μL of the diluted compound (or DMSO) in the 1000× compound plate was pipetted into corresponding position of the V-bottom 96 well plate, blown and patted evenly.
3.1. The cell plate was taken out from the incubator and was observed under microscope. The diluted compound or DMSO in the intermediate plate was added into the cell plate, 11 μL each well.
3.2. The cell was continued to be cultured at 37° C., 5% CO2 for 72 hours.
The 5th Day: CellTiter-Glo Detection of the Cell Activity
1. The CellTiter-Glo buffer and the reaction substrate were taken out from the refrigerator, after balanced to r.t., the buffer was poured into a brown bottle containing the substrate, the bottle was upside down to have the substrate powder sufficientaly dissolved.
2. The cell was observed under microscope; the cell plate was balanced to r.t.
3. The prepared CellTiter-Glo was added into the 96 well plate, at 100 μL/well.
4. The cell plate was placed on a shaker for 10 min, followed by standing at r.t. for 10 min.
5. A white seal film was attached to the bottom of the well plate, and the chemiluminescence signal of each well was detected by the Enspire microplate detector.
6. XLfit was used for data processing. Inhibition rate %=(d−c)/(d−b)×100, while d is the signal value of the DMSO treated group, c is the signal value of the compound treated group, b is signal value of the blank control that only containing medium and DMSO without cells. The data was fitted using the f(x)205[fit=(A+((B−A)/(1+((C/x)^∧D))))] equation in the XLfit software.
In assay [2] the target is T1, BRD4 (BD1) (Homo sapiens, UniProt O60885).
T1 construct: Each member comprises two tandem bromodomains (BD1 and BD2) for recognizing the acetylated lysine residues
Nature of the assay: BRD4 (BD1) bromodomain binding, HTRF. To be noted: 2 h incubation at r.t. On the technique in general: In TR-FRET formats the signal depends on donor and acceptor labels being close together.

Assay [3] concerns the target T2, BRD4 (BD2) (Homo sapiens, UniProt O60885).
T2 construct: Each member comprises two tandem bromodomains (BD1 and BD2) for recognizing the acetylated lysine residues
Nature of the assay: BRD4 (BD2) bromodomain binding, HTRF. To be noted: 2 h incubation at r.t.

The mark [4] stands for this setting: MV4-11, 72 hours, CellTiter-Glo.

In the case of `Cn1cc2c(cc1=O)CN=C(c1ccc(Cl)cc1)c1ccccc1-2` [Compound 4010, 7-(4-chlorophenyl)-2-methyl-2H-benzo[c]pyrido[3,4-e]azepin-3(5H)-ketone], the pIC50 in assay [1] (setting [4]) is 6.20; in assay [2], 7.52; in assay [3], 7.37.

In the case of `CCS(=O)(=O)Nc1cc2c(cc1F)C(c1ccc(F)cc1)=NC(C)c1cc(=O)n(C)nc1-2` (stereo not drawn) [Compound 4095, N-(9-Fluoro-7-(4-flurophenyl)-2,5-dimethyl-3-oxo-3,5-dihydropyridin-2H-benzo[c]pyridazino[3,4-e]azepin-10-yl)ethylsulfonamide], the pIC50 in assay [1] (setting [4]) is 7.85; in assay [2], 8.30; in assay [3], 8.70.

As for `CCS(=O)(=O)Cc1ccc2c(c1)-c1cn(C)c(=O)cc1N(C)N=C2c1ccc(F)cc1Cl` [Compound 4093, 7-(2-chloro-4-flurophenyl)-10-((ethylsulfonyl)methyl)-2,5-dimethyl-2,5-dihydro-3H-benzo[e]pyrido[4,3-c][1,2]diazepin-3-ketone], the pIC50 was 7.77 in assay [1] (setting [4]), 8.30 in assay [2] and 9.15 in assay [3].

For `CCNS(=O)(=O)c1ccc2c(c1)-c1cn(C)c(=O)cc1[C@H](C)N=C2c1ccc(F)cc1` [Compound 4052, (S)—N-ethyl-7-(4-flurophenyl)-2,5-dimethyl-3-oxo-3,5-dihydro-2H-benzo[c]pyrido[3,4-e]azepin-10-sulfamide], the pIC50 in assay [1] (setting [4]) is 7.26; in assay [2], 8.22; in assay [3], 8.70.

As to `C[C@@H]1N=C(c2ccc(F)cc2)c2cc(Cl)c(N)cc2-c2cn(C)c(=O)cc21` [Compound 4069, (S)-10-amino-9-chloro-7-(4-flurophenyl)-2,5-dimethyl-2,5-dihydro-3H-benzo[c]pyrido[3,4-e]azepin-3-ketone], the pIC50 in assay [1] (setting [4]) was 7.46; in assay [2] it was 8.40; in assay [3] it was 8.70.

Turning to `CCS(=O)(=O)Nc1cc2c(cc1Cl)C(c1ccc(F)cc1)=N[C@@H](C)c1cc(=O)n(C)cc1-2` [Compound 4058], the pIC50 in assay [1] (MV4-11, 72 h) was 9.00; in assay [2], 9.00; in assay [3], 9.00.

For `CC[C@@H]1N=C(c2ccc(F)cc2)c2cc(Cl)c(NS(=O)(=O)CC)cc2-c2cn(C)c(=O)cc21` [Compound 4065, (S)—N-(9-chloro-5-ethyl-7-(4-flurophenyl)-2-methyl-3-oxo-3,5-dihydro-2H-benzo[c]pyrido[3,4-e]azepin-10-yl)ethylsulfonamide], the pIC50 in assay [1] (setting [4]) was 9.00; in assay [2] it was 8.70; in assay [3] it was 9.00.

In the case of `COc1ccc2c(c1)-c1cn(C)c(=O)cc1CN=C2c1ccc(F)cc1` [Compound 4019, 7-(4-fluorophenyl)-10-methoxy-2-methyl-2,5-dihydro-3H-benzo[c]pyrido[3,4-e]azepin-3-one], the results for the pIC50 in assay [1] (setting [4]), in assay [2] and in assay [3] were 6.84, 8.00 and 7.43, respectively.

On to `CC[C@@H]1N=C(c2ccc(Cl)cc2)c2ccc(CS(=O)(=O)CC)cc2-c2cn(C)c(=O)cc21` [Compound 4047, (S)-5-ethyl-10-((ethylsulfonyl)methyl)-7-(4-chlorophenyl)-2-methyl-2,5-dihydro-3H-benzo[c]pyrido[3,4-e]azepin-3-ketone], for which the figures for the pIC50 in assay [1] (setting [4]), in assay [2] and in assay [3] were 8.70, 9.40 and 9.00, respectively.

Take `CCS(=O)(=O)Cc1ccc2c(c1)-c1cn(C)c(=O)cc1[C@H](C)N=C2c1ccc(F)cc1F` [Compound 4046]: the pIC50 in assay [1] (setting [4]) is 8.40; in assay [2], 9.00; in assay [3] it was 9.00.

On to `CCNC(=O)Nc1ccc2c(c1)-c1cn(C)c(=O)cc1[C@H](C)N=C2c1ccc(F)cc1` [Compound 4051, (S)-1-ethyl-3-(7-(4-flurophenyl)-2,5-dimethyl-3-oxo-3,5-dihydro-2H-benzo[c]pyrido[3,4-e]azepin-10-yl)urea], for which the results for the pIC50 in assay [1] (setting [4]), in assay [2] and in assay [3] were 7.38, 8.30 and 8.52, respectively.

On to `CCS(=O)(=O)Nc1cc2c(cc1F)C(c1ccc(F)cc1)=N[C@@H](C1CC1)c1cc(=O)n(C)cc1-2` [Compound 4084, (S)—N-(5-cyclopropyl-9-fluoro-7-(4-flurophenyl)-2-methyl-3-oxo-3,5-dihydro-2H-benzo[c]pyrido[3,4-e]azepin-10-yl)ethylsulfonamide], for which the pIC50 in assay [1] (setting [4]) is 9.30; in assay [2] it was 8.70; in assay [3], 9.00.

For `CCNC(=O)C[C@@H]1N=C(c2ccc(Cl)cc2)c2cc(F)ccc2-c2cn(C)c(=O)cc21` [Compound 4034, (S)-2-(7-(4-chlorophenyl)-9-fluoro-2-methyl-3-oxo-3,5-dihydro-2H-benzo[c]pyrido[3,4-e]azepin-5-yl)N-ethyl acetamide], the pIC50 in assay [1] (setting [4]) is 7.82; in assay [2] it was 8.40; in assay [3], 9.00.

Consider `CCS(=O)(=O)Cc1cc2c(cc1OC)C(c1ccc(F)cc1)=N[C@@H](C)c1cc(=O)n(C)cc1-2` [Compound 4057, (S)-10-((ethylsulfonyl)methyl)-7-(4-flurophenyl)-9-methoxyl-2,5-dimethyl-2,5-dihydro-3H-benzo[c]pyrido[3,4-e]azepin-3-ketone], for which the pIC50 was 8.40 in assay [1] (setting [4]), 8.70 in assay [2] and 9.00 in assay [3].

Turning to `CCS(=O)(=O)Nc1cc2c(cc1F)C(c1ccc(Cl)cc1)=N[C@@H](C)c1cc(=O)n(C)cc1-2` [Compound 4062, (S)—N-(7-(4-chlorophenyl)-9-fluoro-2,5-dimethyl-3-oxo-3,5-dihydro-2H-benzo[c]pyrido[3,4-e]azepin-10-yl)ethylsulfonamide], the pIC50 in assay [1] (setting [4]), in assay [2] and in assay [3] was 9.00 throughout.

On to `C[C@@H]1N=C(c2ccc(F)cc2)c2cc(F)c(NS(C)(=O)=O)cc2-c2cn(C)c(=O)cc21` [Compound 4074, (S)—N-(9-fluoro-7-(4-flurophenyl)-2,5-dimethyl-3-oxo-3,5-dihydro-2H-benzo[c]pyrido[3,4-e]azepin-10-yl) methylsulfamide], for which the pIC50 in assay [1] (setting [4]) is 8.70; in assay [2] it was 9.00; in assay [3], 9.00.

Turning to `CCS(=O)(=O)Cc1ccc2c(c1)-c1cn(C)c(=O)cc1[C@H](CC(N)=O)N=C2c1ccc(F)cc1` [Compound 4076, (S)-2-(10-((ethylsulfonyl)methyl)-7-(4-flurophenyl)-2-methyl-3-oxo-3,5-dihydro-2H-benzo[c]pyrido[3,4-e]azepin-5-yl)acetamide], the pIC50 in assay [1] (setting [4]) was 6.94; in assay [2] it was 8.70; in assay [3], 9.00.

Consider `CCS(=O)(=O)Cc1cc2c(cc1OC)C(c1ccc(F)cc1)=NCc1cc(=O)n(C)cc1-2` [Compound 4094, 10-((Ethylsulfonyl)methyl)-7-(4-flurophenyl)-9-methoxyl-2-methyl-2,5-dihydro-3H-benzo[c]pyrido[3,4-e]azepin-3-ketone], for which the pIC50 in assay [1] (setting [4]) is 7.31; in assay [2], 8.52; in assay [3], 8.70.

As to `CCS(=O)(=O)Cc1ccc2c(c1)-c1cn(C)c(=O)cc1[C@H](C1CC1)N=C2c1ccc(F)cc1` [Compound 4042, (S)-5-cyclopropyl-10-((ethylsulfonyl)methyl)-7-(4-flurophenyl)-2-methyl-2,5-dihydro-3H-benzo[c]pyrido[3,4-e]azepin-3-ketone], the results for the pIC50 in assay [1] (setting [4]), in assay [2] and in assay [3] were 8.15, 9.00 and 9.00, respectively.

`CCS(=O)(=O)Cc1ccc2c(c1)-c1cn(C)c(=O)cc1[C@H](C(F)(F)F)N=C2c1ccc(F)cc1` [Compound 4040, (R)-10-((ethylsulfonyl)methyl)-7-(4-flurophenyl)-2-methyl-5-(trifluoromethyl)-2,5-dihydro-3H-benzo[c]pyrido[3,4-e]azepin-3-ketone]: the pIC50 in assay [1] (setting [4]) is 7.37; in assay [2], 8.30; in assay [3], 8.70.

On to `CCNC(=O)C[C@@H]1N=C(c2ccc(F)cc2)c2ccc(CS(C)(=O)=O)cc2-c2cn(C)c(=O)cc21` [Compound 4015, (S)—N-ethyl-2-(7-(4-fluorophenyl)-2-methyl-10-(methylsulfonemethyl)-3-oxo-3,5-dihydro-2H-benzo[c]pyrido[3,4-e]azepin-5-yl)acetamide], for which the pIC50 in assay [1] (setting [4]) was 7.16; in assay [2], 8.70; in assay [3] it was 9.00.

As to `C[C@@H]1N=C(c2ccc(F)cc2)c2cc(Cl)c(NS(C)(=O)=O)cc2-c2cn(C)c(=O)cc21` [Compound 4079, (S)—N-(9-chloro-7-(4-flurophenyl)-2,5-dimethyl-3-oxo-3,5-dihydro-2H-benzo[c]pyrido[3,4-e]azepin-10-yl)methylsulfamide], the pIC50 is 9.00 in assay [1] (setting [4]), 8.52 in assay [2] and 9.00 in assay [3].

With `CCS(=O)(=O)Cc1ccc2c(c1)-c1cn(C)c(=O)cc1[C@H](CCO)N=C2c1ccc(F)cc1` [Compound 4088, (S)-10-((ethylsulfonyl)methyl)-7-(4-flurophenyl)-5-(2-hydroxyethyl)-2-methyl-2,5-dihydro-3H-benzo[c]pyrido[3,4-e]azepin-3-ketone], the pIC50 in assay [1] (setting [4]) is 7.59; in assay [2] it was 8.52; in assay [3], 9.00.

For the molecule `CCS(=O)(=O)Cc1cc2c(cc1O)C(c1ccc(F)cc1)=N[C@@H](C)c1cc(=O)n(C)cc1-2` [Compound 4063, (S)-10-((ethylsulfonyl)methyl)-7-(4-flurophenyl)-9-hydroxyl-2,5-dimethyl-2,5-dihydro-3H-benzo[c]pyrido[3,4-e]azepin-3-ketone], the pIC50 in assay [1] (setting [4]) is 8.52; in assay [2], 9.00; in assay [3] it was 9.00.

Consider `CCNC(=O)C[C@@H]1N=C(c2ccc(Cl)cc2)c2ncccc2-c2cn(C)c(=O)cc21` [Compound 4030, (S)-2-(7-(4-chlorophenyl)-2-methyl-3-oxo-3,5-dihydro-2H-dipyrido[2,3-c:3′,4′-e]azepin-5-yl)-N-ethyl acetamide], for which the pIC50 was 7.77 in assay [1] (setting [4]), 8.22 in assay [2] and 8.70 in assay [3].
